What was measured:
bacterial culture = test: Zone of inhibition test; format: cell-based; details: 20 μl on filter paper discs, TSA plates, 20 hours at 37° C.
Method: A zone of inhibition test is conducted on several materials: zinc oxide, lysine hydrochloride, and ZLC. The method involves making a lawn of freshly prepared bacterial culture on TSA (trypticase soy agar) plates. Sterile filter paper discs are seeded with 20 μl of test sample (supernatant or mixture). Sample-coated filter paper discs are air dried and applied onto the bacterial lawn on TSA plates. Plates are incubated for 20 hours at 37° C.

[1] = biological target: Bovine Serum Albumin (BSA) (Bos taurus, UniProt P02769); test: Flocculation of ZLC in the presence of protein (BSA); format: physicochemical; details: ZLC 15 mg/ml, 5 hours, 37° C.
Method: Turbidity and pH of solutions are measured 5 hours after the mixtures were placed in a 37° C. oven, and the results are shown in Table 3: […]

[2] = Hydrolysis reaction: pH and turbidity of diluted ZLC solutions before and after aging; format: physicochemical; details: for pH after aging / turbidity after aging (NTU): 37° C. oven over 5 hours
Method: A 185 mg/ml ZLC solution is prepared and diluted several-fold and aged in a 37° C. oven over 5 hours for turbidity studies. […] Turbidity of the solutions is measured using a nephelometer, results being given in nephelometric turbidity units (NTU).

[3] = sample 3: 1% BSA, pH adjusted to 5.13

Chain of Bovine Serum Albumin (BSA) (P02769 25-607): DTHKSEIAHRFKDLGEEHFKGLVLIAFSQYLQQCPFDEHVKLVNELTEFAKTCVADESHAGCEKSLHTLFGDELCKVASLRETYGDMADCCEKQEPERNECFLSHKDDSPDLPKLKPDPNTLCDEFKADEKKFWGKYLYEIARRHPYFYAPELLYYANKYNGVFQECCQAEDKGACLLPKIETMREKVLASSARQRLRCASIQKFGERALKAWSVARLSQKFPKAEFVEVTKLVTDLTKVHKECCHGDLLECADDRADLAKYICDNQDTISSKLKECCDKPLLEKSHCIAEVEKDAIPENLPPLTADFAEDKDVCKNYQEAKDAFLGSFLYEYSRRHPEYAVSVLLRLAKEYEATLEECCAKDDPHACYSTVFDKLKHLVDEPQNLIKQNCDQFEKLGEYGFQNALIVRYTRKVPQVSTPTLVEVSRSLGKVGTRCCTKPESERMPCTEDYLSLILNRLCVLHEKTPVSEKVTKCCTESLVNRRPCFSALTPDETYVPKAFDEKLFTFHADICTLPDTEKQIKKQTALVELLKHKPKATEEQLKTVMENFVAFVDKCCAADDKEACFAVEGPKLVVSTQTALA

## [Zn(C6H14N2O2)2Cl]^+Cl^− [ZLC]
Bacterial culture
  antibacterial activity (zone of inhibition): better antibacterial activity than zinc oxide alone or lysine hydrochloride alone
[1]; sample 1: DI water, 0% BSA
  Turbidity(NTU): 357 NTU
  pH: 7.98
[1]; sample 2: 1% BSA, pH 7.17
  Turbidity(NTU): >1000 NTU
  pH: 8.16
[1]; [3]
  Turbidity(NTU): >1000 NTU
  pH: 7.97
[2]; 5.78 mg/ml
  initial pH: 8.0
  initial turbidity (NTU): 40.1 NTU
  pH after aging: 8.0
  turbidity after aging (NTU): >1000 NTU
[2]; 11.56 mg/ml
  initial pH: 7.8
  initial turbidity (NTU): 14.8 NTU
  pH after aging: 7.8
  turbidity after aging (NTU): >1000 NTU
[2]; 23.125 mg/ml
  initial pH: 7.7
  initial turbidity (NTU): 0.70 NTU
  pH after aging: 7.7
  turbidity after aging (NTU): 247.4 NTU
[2]; 46.25 mg/ml
  initial pH: 7.4
  initial turbidity (NTU): 1.48 NTU
  pH after aging: 7.4
  turbidity after aging (NTU): 2.81 NTU
[2]; 92.5 mg/ml
  initial pH: 7.0
  initial turbidity (NTU): 2.78 NTU
  pH after aging: 7.0
  turbidity after aging (NTU): 2.60 NTU
[2]; 185 mg/ml
  initial pH: 6.8
  initial turbidity (NTU): 4.75 NTU
  pH after aging: 6.8
  turbidity after aging (NTU): 4.08 NTU
[2]; 8×, 16× and 32× diluted solutions, precipitates identified by PXRD
  behaviour of the complex upon dilution: disassociates upon dilution, with consequent precipitation of zinc oxide

From patent publication US9504858B2 (Colgate-Palmolive Company, priority 2012, dated 2016)
